From PubChem BioAssay (NCI)
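Where inhibition never reached the appropriate level, the endpoint shown equals the highest concentration tested. Otherwise, values were interpolated linearly from a five-concentration, 48-hour dose response in 96-well plates. The concentration for 50% growth inhibition is given as GI50. TGI is the concentration that stops growth completely.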

Tests used:
Assay in all cases: NCI tumour cell line growth inhibition, 48 h
[1] = tested on: K-562 leukemia
[2] = tested on: CAKI-1 renal
[3] = tested on: OVCAR-5 ovarian
[4] = tested on: HT29 colon
[5] = tested on: HL-60(TB) leukemia
[6] = tested on: NCI-H522 lung
[7] = tested on: SK-MEL-28 melanoma
[8] = tested on: A549 NSCLC
[9] = tested on: LOX IMVI melanoma
[10] = tested on: CCRF-CEM leukemia
[11] = tested on: SK-MEL-5 melanoma
[12] = tested on: HCC-2998 colon
[13] = tested on: U251 CNS
[14] = tested on: SW-620 colon
[15] = tested on: DU-145 prostate
[16] = tested on: HCT-15 colon
[17] = tested on: SK-MEL-2 melanoma
[18] = tested on: UACC-62 melanoma
[19] = tested on: MCF7 breast
[20] = tested on: MDA-MB-231 breast
[21] = tested on: MOLT-4 leukemia
[22] = tested on: RPMI-8226 leukemia
[23] = tested on: MDA-MB-435
[24] = tested on: OVCAR-8 ovarian
[25] = tested on: SF-295 CNS
[26] = tested on: OVCAR-4 ovarian
[27] = tested on: TK-10 renal
[28] = tested on: NCI-H460 lung
[29] = tested on: MALME-3M melanoma
[30] = tested on: IGROV1 ovarian
[31] = tested on: HS 578T breast
[32] = tested on: KM12 colon
[33] = tested on: A498 renal
[34] = tested on: ACHN renal
[35] = tested on: RXF 393 renal
[36] = tested on: HOP-62 NSCLC
[37] = tested on: NCI-H23 lung
[38] = tested on: NCI-H226 lung
[39] = tested on: SF-539 CNS
[40] = tested on: HOP-92 NSCLC
[41] = tested on: NCI/ADR-RES ovarian
[42] = tested on: SN12C renal
[43] = tested on: SF-268 CNS
[44] = tested on: UO-31 renal
[45] = tested on: BT-549 breast
[46] = tested on: SR leukemia
[47] = tested on: SNB-19 CNS
[48] = tested on: HCT-116 colon
[49] = tested on: UACC-257 melanoma
[50] = tested on: 786-0 renal
[51] = tested on: PC-3 prostate
[52] = tested on: COLO 205 colon
[53] = tested on: EKVX NSCLC
[54] = tested on: SK-OV-3 ovarian
[55] = tested on: OVCAR-3 ovarian

COc1ccc(-c2noc(C(=O)O)c2-c2cc(OC)c(OC)c(OC)c2)cc1
GI50 [1]: 0.609 µM | TGI [1]: > 100 µM | GI50 [2]: 2.35 µM | TGI [2]: > 100 µM | GI50 [3]: 5.82 µM | TGI [3]: > 100 µM | GI50 [4]: 1.5 µM | TGI [4]: > 100 µM | GI50 [5]: 2.19 µM | TGI [5]: 6.41 µM | GI50 [6]: 1.59 µM | TGI [6]: > 100 µM | GI50 [7]: 37.3 µM | TGI [7]: > 100 µM | GI50 [8]: 4.75 µM | TGI [8]: > 100 µM | GI50 [9]: 5.12 µM | TGI [9]: > 100 µM | GI50 [10]: 3.52 µM | TGI [10]: > 100 µM | GI50 [11]: 1.3 µM | TGI [11]: > 100 µM | GI50 [12]: 5.75 µM | TGI [12]: > 100 µM | GI50 [13]: 4.65 µM | TGI [13]: > 100 µM | GI50 [14]: 1.53 µM | TGI [14]: > 100 µM | GI50 [15]: 3.48 µM | TGI [15]: > 100 µM | GI50 [16]: 0.881 µM | TGI [16]: > 100 µM | GI50 [17]: 5.9 µM | TGI [17]: > 100 µM | GI50 [18]: 11.1 µM | TGI [18]: > 100 µM | GI50 [19]: 1.34 µM | TGI [19]: > 100 µM | GI50 [20]: 7.66 µM | TGI [20]: > 100 µM | GI50 [21]: 4.91 µM | TGI [21]: > 100 µM | GI50 [22]: 4.01 µM | TGI [22]: > 100 µM | GI50 [23]: 0.306 µM | TGI [23]: 1.1 µM | GI50 [24]: 5.61 µM | TGI [24]: > 100 µM | GI50 [25]: 1.57 µM | TGI [25]: > 100 µM | GI50 [26]: 9.53 µM | TGI [26]: > 100 µM | GI50 [27]: > 100 µM | TGI [27]: > 100 µM | GI50 [28]: 2.52 µM | TGI [28]: > 100 µM | GI50 [29]: 8.02 µM | TGI [29]: > 100 µM | GI50 [30]: 4.91 µM | TGI [30]: > 100 µM | GI50 [31]: 3.38 µM | TGI [31]: > 100 µM | GI50 [32]: 0.595 µM | TGI [32]: > 100 µM | GI50 [33]: 1.43 µM | TGI [33]: 7.02 µM | GI50 [34]: 7.42 µM | TGI [34]: > 100 µM | GI50 [35]: 1.94 µM | TGI [35]: 6.56 µM | GI50 [36]: 3.82 µM | TGI [36]: > 100 µM | GI50 [37]: 9.17 µM | TGI [37]: > 100 µM | GI50 [38]: > 100 µM | TGI [38]: > 100 µM | GI50 [39]: 2.45 µM | TGI [39]: 20.5 µM | GI50 [40]: 3.54 µM | TGI [40]: > 100 µM | GI50 [41]: 1.47 µM | TGI [41]: > 100 µM | GI50 [42]: 37.2 µM | TGI [42]: > 100 µM | GI50 [43]: 7.63 µM | TGI [43]: > 100 µM | GI50 [44]: 5.45 µM | TGI [44]: > 100 µM | GI50 [45]: 17.9 µM | TGI [45]: > 100 µM | GI50 [46]: 0.402 µM | TGI [46]: > 100 µM | GI50 [47]: 6.75 µM | TGI [47]: > 100 µM | GI50 [48]: 0.752 µM | TGI [48]: > 100 µM | GI50 [49]: > 100 µM | TGI [49]: > 100 µM | GI50 [50]: 4.85 µM | TGI [50]: > 100 µM | GI50 [51]: 1.33 µM | TGI [51]: > 100 µM | GI50 [52]: 1.95 µM | TGI [52]: 9.49 µM | GI50 [53]: 4.77 µM | TGI [53]: > 100 µM | GI50 [54]: 3.9 µM | TGI [54]: > 100 µM | GI50 [55]: 1.71 µM | TGI [55]: > 100 µM
